We go through 29 compounds from patent US10316035B2, “Triazolopyridine inhibitors of myeloperoxidase” (BRISTOL-MYERS SQUIBB COMPANY, priority 2015, dated 2019).

One may read the IC50 as the point on the concentration scale where inhibition reaches its midpoint.

The first assay addresses T1, myeloperoxidase (MPO) (Homo sapiens, UniProt P05164).
T1 sequence (P05164 49-745): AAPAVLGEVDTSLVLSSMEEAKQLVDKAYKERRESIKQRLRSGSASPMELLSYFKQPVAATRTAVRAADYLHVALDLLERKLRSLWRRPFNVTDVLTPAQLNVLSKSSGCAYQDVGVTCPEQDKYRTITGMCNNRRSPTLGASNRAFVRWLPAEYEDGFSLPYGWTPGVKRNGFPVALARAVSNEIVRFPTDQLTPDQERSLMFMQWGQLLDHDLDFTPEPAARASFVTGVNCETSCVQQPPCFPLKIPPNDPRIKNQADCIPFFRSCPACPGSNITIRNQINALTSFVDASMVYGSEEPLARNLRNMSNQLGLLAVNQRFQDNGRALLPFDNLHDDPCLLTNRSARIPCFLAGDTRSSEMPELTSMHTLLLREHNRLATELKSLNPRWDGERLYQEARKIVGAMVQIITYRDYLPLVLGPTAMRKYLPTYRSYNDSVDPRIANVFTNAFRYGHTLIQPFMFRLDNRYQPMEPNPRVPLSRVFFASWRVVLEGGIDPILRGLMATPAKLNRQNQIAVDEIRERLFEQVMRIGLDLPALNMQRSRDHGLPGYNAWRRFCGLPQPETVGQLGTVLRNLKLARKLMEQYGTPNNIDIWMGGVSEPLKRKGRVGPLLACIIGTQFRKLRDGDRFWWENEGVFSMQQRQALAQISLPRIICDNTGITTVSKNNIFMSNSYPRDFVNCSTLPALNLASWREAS
The experiment in a line: MPO peroxidation assay (Amplex Red assay). Type of assay: biochemical.
Details: not given
Here is the method:
MPO Peroxidation Assay (Amplex Red Assay)
MPO peroxidation activity was measured in 100 mM KPi (pH 7.4) by utilizing the non-fluorescent reagent Amplex Red (Invitrogen catalog # A12222) which can be oxidized to the highly fluorescent resorufin. Amplex Red is oxidized by the peroxidase action of MPO to resorufin. Reactions were carried out in 50 μL total volume by adding a 25 μL mixture of 200 pM myeloperoxidase and 40 nM H2O2(Sigma #349887) to 100 nL inhibitor in 100% DMSO in a 384 well Perkin Elmer Optiplate. Enzyme and compound were preincubated for ten minutes at room temperature.
After the ten minute preincubation, 25 μL of an Amplex Red mixture containing 200 μM Amplex Red and 10 mM H2O2 was added to the plate. Kinetic determinations were carried out immediately on a Perkin Elmer Envision (15 minute kinetic read, Ex: 535 nm, Em: 590 nm).
IC50 values were calculated by determining the slope of the linear portion of the kinetic trace ([…]), and using that calculated slope to determine % inhibition occurring at each concentration of inhibitor using the following equation:
[formula] where A=minimal Y value (activity level of inhibited sample), B=maximal Y value (activity level of uninhibited sample), C=Log IC50, D=Hill Slope, x=concentration of inhibitor. MPO Chlorination Assay (APF Assay)
`Nc1cc(OCc2ccccc2F)c2nn[nH]c2n1` [Example 55, 7-(2-Fluorobenzyloxy)-3H-[1,2,3]triazolo[4,5-b]pyridin-5-amine] returned an IC50 of 1 to 100 nM.
`Cc1c(COc2cc(N)nc3[nH]nnc23)cccc1-c1cccc(F)c1` [Example 68, 7-((3′-Fluoro-2-methylbiphenyl-3-yl)methoxy)-3H-[1,2,3]triazolo[4,5-b]pyridin-5-amine] had an IC50 of 1 to 100 nM.
`Nc1cc(OCc2cc(-c3cccc(F)c3)ccc2Cl)c2nn[nH]c2n1` [Example 70, 7-((4-Chloro-3′-fluorobiphenyl-3-yl)methoxy)-3H-[1,2,3]triazolo[4,5-b]pyridin-5-amine] registered an IC50 of 1 to 100 nM.
Take `Cn1cc(-c2cccc(COc3cc(N)nc4[nH]nnc34)c2)cn1` [Example 77, 7-(3-(1-Methyl-1H-pyrazol-4-yl)benzyloxy)-3H-[1,2,3]triazolo[4,5-b]pyridin-5-amine]: the IC50 lay in the range of 1 to 100 nM.

The assay is the same for the next values; noted with them: MPO peroxidation, potency range class; read-out: Amplex Red IC50.
With `CN(C)S(=O)(=O)c1ccccc1-c1ccc(COc2cc(N)nc3[nH]nnc23)c(Cl)c1` [Example 46, 4′-((5-Amino-3H-[1,2,3]triazolo[4,5-b]pyridin-7-yloxy)methyl)-3′-chloro-N,N-dimethylbiphenyl-2-sulfonamide], the IC50 lay in the range of 1 to 100 nM.
As to `Nc1cc(OCc2cc(C(=O)NCc3ccccc3)ccc2F)c2nn[nH]c2n1` [Example 47, 3-((5-Amino-3H-[1,2,3]triazolo[4,5-b]pyridin-7-yloxy)methyl)-N-benzyl-4-fluorobenzamide], the IC50 was 1 to 100 nM.
Same read-out and setting: for `Nc1cc(OCc2cc(C(=O)NC3CC3)ccc2F)c2nn[nH]c2n1` [Example 48, 3-((5-Amino-3H-[1,2,3]triazolo[4,5-b]pyridin-7-yloxy)methyl)-N-cyclopropyl-4-fluorobenzamide] the value was 1 to 100 nM; for `Nc1cc(OCc2cc(C(=O)Nc3cccc(Cl)c3)ccc2F)c2nn[nH]c2n1` [Example 49, 3-((5-Amino-3H-[1,2,3]triazolo[4,5-b]pyridin-7-yloxy)methyl)-N-(3-chlorophenyl)-4-fluorobenzamide], 1 to 100 nM; for `Nc1cc(OCC2CCc3ccccc3C2)c2nn[nH]c2n1` (centres unmarked) [Example 51, 7-((1,2,3,4-Tetrahydronaphthalen-2-yl)methoxy)-3H-[1,2,3]triazolo[4,5-b]pyridin-5-amine], 101 to 999 nM.
In the case of `CC1CC(c2ccccc2)CCC1COc1cc(N)nc2[nH]nnc12` (centres unmarked) [Example 53, 7-((2-Methyl-4-phenylcyclohexyl)methoxy)-3H-[1,2,3]triazolo[4,5-b]pyridin-5-amine], the IC50 was in the range of 101 to 999 nM.
Take `NC(=O)c1cccc(COc2cc(N)nc3[nH]nnc23)c1` [Example 56, 3-((5-Amino-3H-[1,2,3]triazolo[4,5-b]pyridin-7-yloxy)methyl)benzamide]: the IC50 was 101 to 999 nM.
In the case of `COc1ccc(Br)cc1COc1cc(N)nc2[nH]nnc12` [Example 58, 7-(5-Bromo-2-methoxybenzyloxy)-3H-[1,2,3]triazolo[4,5-b]pyridin-5-amine], the half-maximal inhibitory concentration (IC50) lay in the range of 1 to 100 nM.
In the case of `COc1c(Br)cccc1COc1cc(N)nc2[nH]nnc12` [Example 59, 7-(3-Bromo-2-methoxybenzyloxy)-3H-[1,2,3]triazolo[4,5-b]pyridin-5-amine], the IC50 lay within 1 to 100 nM.
On the same count and under the same terms, for `Cc1c(Br)cccc1COc1cc(N)nc2[nH]nnc12` [Example 60, 7-(3-Bromo-2-methylbenzyloxy)-3H-[1,2,3]triazolo[4,5-b]pyridin-5-amine] the value was 1 to 100 nM; for `Nc1cc(OCc2cccc(Br)c2F)c2nn[nH]c2n1` [Example 62, 7-(3-Bromo-2-fluorobenzyloxy)-3H-[1,2,3]triazolo[4,5-b]pyridin-5-amine], 1 to 100 nM; for `Cc1c(COc2cc(N)nc3[nH]nnc23)cccc1-c1cncc(F)c1` [Example 63, 7-(3-(5-Fluoropyridin-3-yl)-2-methylbenzyloxy)-3H-[1,2,3]triazolo[4,5-b]pyridin-5-amine], 1 to 100 nM.
For the compound `COc1ccc(-c2cccc(COc3cc(N)nc4[nH]nnc34)c2)c(F)c1` [Example 64, 7-((2′-Fluoro-4′-methoxybiphenyl-3-yl)methoxy)-3H-[1,2,3]triazolo[4,5-b]pyridin-5-amine], the IC50 is 101 to 999 nM.
On the same count and under the same terms, the result for `Cc1ccc(-c2cccc(F)c2)cc1COc1cc(N)nc2[nH]nnc12` [Example 65, 7-((3′-Fluoro-4-methylbiphenyl-3-yl)methoxy)-3H-[1,2,3]triazolo[4,5-b]pyridin-5-amine] reads 1 to 100 nM; that for `COc1ccc(-c2cccc(F)c2)cc1COc1cc(N)nc2[nH]nnc12` [Example 66, 7-((3′-Fluoro-4-methoxybiphenyl-3-yl)methoxy)-3H-[1,2,3]triazolo[4,5-b]pyridin-5-amine], 1 to 100 nM.
Regarding `COc1c(COc2cc(N)nc3[nH]nnc23)cccc1-c1cccc(F)c1` [Example 67, 7-((3′-Fluoro-2-methoxybiphenyl-3-yl)methoxy)-3H-[1,2,3]triazolo[4,5-b]pyridin-5-amine], the IC50 was in the range of 101 to 999 nM.
As for `Cc1c(COc2cc(N)nc3[nH]nnc23)cccc1-c1ccccc1` [Example 69, 7-((2-Methylbiphenyl-3-yl)methoxy)-3H-[1,2,3]triazolo[4,5-b]pyridin-5-amine], the IC50 lay within 1 to 100 nM.
In the case of `Nc1cc(OCc2cc(-c3cccc(F)c3)ccc2F)c2nn[nH]c2n1` [Example 71, 7-((3′,4-Difluorobiphenyl-3-yl)methoxy)-3H-[1,2,3]triazolo[4,5-b]pyridin-5-amine], the IC50 lay within 1 to 100 nM.
In the case of `Nc1cc(OCc2cccc(-c3cccc(F)c3)c2F)c2nn[nH]c2n1` [Example 72, 7-((2,3′-Difluorobiphenyl-3-yl)methoxy)-3H-[1,2,3]triazolo[4,5-b]pyridin-5-amine], the IC50 was 1 to 100 nM.
`COc1ccccc1-c1ccc(F)c(COc2cc(N)nc3[nH]nnc23)c1F` [Example 73, 7-((2,4-Difluoro-2′-methoxybiphenyl-3-yl)methoxy)-3H-[1,2,3]triazolo[4,5-b]pyridin-5-amine]: the IC50 was in the range of 1 to 100 nM.
Still for that read-out and setting: for `Nc1cc(OCc2cccc(-c3cnn(Cc4ccccc4)c3)c2)c2nn[nH]c2n1` [Example 74, 7-(3-(1-Benzyl-1H-pyrazol-4-yl)benzyloxy)-3H-[1,2,3]triazolo[4,5-b]pyridin-5-amine] the value was 1 to 100 nM; for `Nc1cc(OCc2cccc(-c3ccn(Cc4ccccc4)n3)c2)c2nn[nH]c2n1` [Example 75, 7-(3-(1-Benzyl-1H-pyrazol-3-yl)benzyloxy)-3H-[1,2,3]triazolo[4,5-b]pyridin-5-amine], 101 to 999 nM.
In the case of `Cn1nccc1-c1cccc(COc2cc(N)nc3[nH]nnc23)c1` [Example 78, 7-(3-(1-Methyl-1H-pyrazol-5-yl)benzyloxy)-3H-[1,2,3]triazolo[4,5-b]pyridin-5-amine], the IC50 was 1 to 100 nM.
In the case of `Cn1nc(C(F)(F)F)cc1-c1cccc(COc2cc(N)nc3[nH]nnc23)c1` [Example 79, 7-(3-(1-Methyl-3-(trifluoromethyl)-1H-pyrazol-5-yl)benzyloxy)-3H-[1,2,3]triazolo[4,5-b]pyridin-5-amine], the IC50 fell in the range of 101 to 999 nM.
For the compound `COc1c(COc2cc(N)nc3[nH]nnc23)cccc1-c1ccn(C)n1` [Example 80, 7-(2-Methoxy-3-(1-methyl-1H-pyrazol-3-yl)benzyloxy)-3H-[1,2,3]triazolo[4,5-b]pyridin-5-amine], the IC50 was in the range of 101 to 999 nM.
